Measured values reported in patent US20130150346A1, “Use of FAAH Inhibitors for Treating Parkinson's Disease and Restless Legs Syndrome” (Ironwood Pharmaceutical, Inc., priority 2010, published 2013).

Assays:
[1] = system: MPTP-lesioned macaques; assay: Motor activity (total activity, high activity time and counts) in MPTP-lesioned macaques treated with URB597 and L-DOPA; assay type: in vivo, cynomolgus monkeys (Macaca fascicularis)
Source text: In addition, a quantitative assessment of marmoset activity was made using computer-operated passive infra-red sensors, essentially as described previously (Maccarrone et al., 2003, J. Neurochem. 85: 1018-1025; Visanji et al., 2009 J Pharm Exp Ther 328: 276-283). A single sensor containing a hemispherical lens (Guardall, Mississauga, ON, Canada) was mounted 1.5 m above the top of each the observation cage. The sensor was positioned so that motion was detected throughout the entirety of the cage below. The signal was fed via an RS-232 input to a computer. […] Activity counts were logged in 1-min epochs for the entire 6 h duration of the experiment and cumulated over the peak dose period of 2-4 h.
Assessment of marmoset activity was further assessed over time by quantifying the average activity of counts per minute of the same animals obtained prior to administration of MPTP (i.e., in the normal state). Activity over the same period of 2-4 h was calculated and used to identify minutes of high activity (a minute when activity was above the average per minute of the animal prior to MPTP). High activity counts (the total counts obtained in high activity minutes) were cumulated. High activity time (the number of high activity minutes) were also calculated.
Six cynomolgus monkeys (Macaca fascicularis) were used in each experiment. Animals were group housed with up to 3 animals per cage. The cage sizes exceeded UK, NIH, EU and CCAC minimum size recommendations, 2.4 m×3.0 m×1.0 m. The housing room was subject to a 12 hour light-dark cycle (lights on 7 a.m.), temperature 20-25° C. in a room containing only animals of the same sex. Fresh fruit, primate pellets and water was available ad libitum unless specifically described in other examples below.
This experiment examined the behavioral responses to five doses of URB597 (0.01, 0.03, 0.1, 0.3 or 1 mg/kg, i.v.) or vehicle in combination with L-DOPA in six parkinsonian macaques previously lesioned with MPTP.
The protocols for housing and acclimatization for the six parkinsonian MPTP-lesioned macaques were as those detailed in Example 6.
After acclimatization, the macaques in the MPTP cohort were rendered parkinsonian by once daily subcutaneous injection of 0.2 mg/kg MPTP, administered for 8-12 days, until the first appearance of parkinsonism symptoms. After this time, a parkinsonian syndrome evolved to a moderate to marked level, over approximately 30 days, and stabilized. Additional administrations of MPTP were given to some animals to titrate to similar degrees of parkinsonism in individuals across the group.
Sixty days after commencing MPTP administration, L-DOPA (20 mg/kg) was administered orally twice daily for six months. L-DOPA was administered as Madopar™ (L-DOPA in combination with benserazide). This treatment led to the development of motor fluctuations, including dyskinesia and wearing-off.
Dose-finding studies were performed to define a dose of L-DOPA for each individual macaque that provided the best anti-parkinsonian effect achievable and elicited hyperactivity that was stable and reproducible for that animal, on successive L-DOPA administrations.
L-DOPA was administered p.o. at a dose volume of 1 ml/kg, as Madopar™ (L-DOPA in combination with benserazide in the ratio 4:1). The vehicle for Madopar™ was water. On days when animals were not subject to behavioral observations they received maintenance oral L-DOPA, Madopar™ (30 mg/kg, p.o.) at approximately 9:00 a.m.
URB597 was obtained from Cayman Chemical (product #10046) and was formulated in 0.9% sterile saline containing 1% DMSO (v/v) (Sigma-Aldrich product #D2650) and 2% (v/v) Tween-80 (Sigma-Aldrich product #P4780) for dosing at a volume of 1 ml/kg.
For each URB597 concentration tested, requisite amounts of URB597 were weighed into sterile 50 ml sterile polypropylene tubes (Falcon™) (e.g., for the 1 mg/kg doses, approximately 35 mg was weighed). […]

[2] = system: MPTP-lesioned macaques; assay: as above; assay type: in vivo, cynomolgus monkeys (Macaca fascicularis); remark: listed apart in the source

`NC(=O)c1cccc(-c2cccc(OC(=O)NC3CCCCC3)c2)c1` [URB597] was tested, and the “hyperactive behavior compared with treatment with L-DOPA alone” value ([1]; 0.3 and 1.0 mg/ml (so in the source) URB597 i.v. and L-DOPA p.o.) was “significant reduction”, the “effect on L-DOPA-induced hyperactivity” value ([1]; URB597 0.1 mg/kg i.v. + L-DOPA p.o.) was “ineffective” and the “total activity versus L-DOPA treatment only” value ([1]; URB597 0.3 mg and 1.0 mg/kg i.v. + L-DOPA p.o., at 3 hrs, RM-ANOVA) was “significant effect”. The “effect on L-DOPA-induced hyperactivity” value ([1]; URB597 0.3 mg/kg i.v. + L-DOPA p.o.) was “maximally effective”, the “levels of L-DOPA-induced hyperactivity, dose dependence” value ([1]; URB597 0.01-1 mg/kg i.v. + L-DOPA p.o.) was “dose-dependently reduced” and the “hyperactivity over the L-DOPA treatments alone” value ([1]; URB597 0.3 and 1.0 mg/kg i.v. + L-DOPA p.o., at 3 hrs post-administration of L-DOPA) was “lowered hyperactivity”. The “total activity counts, high activity time and high activity counts compared to normal macaques” value ([2]; L-DOPA/URB597 (0.1 ml/kg as printed, i.v.), between 2 and 3 h after L-DOPA) was “significantly higher” and the “total activity and high activity count compared to L-DOPA alone treatment” value ([2]; URB597 0.3 mg/ml (so in the source) i.v. + L-DOPA p.o., 2-3 h post L-DOPA, p<0.05) was “significantly lower”.
